Measurements reported in patent US5451600A, “Substituted tetrahydrobenzopyrrolylfuranoic acid derivatives as phospholipase A2 inhibitors” (Hoffmann-La Roche Inc., priority 1994, dated 1995).
Read-outs that look alike come from different tables or passages of the source.

Columns and labels:
[1] = molecular target: T1, PLA2 activity in human synovial fluid (HSF) (Homo sapiens, UniProt P14555); test: Phospholipase A2 (PLA2) enzymatic assay - % Inhibition of HSF-PLA2; type: biochemical; details: for inhibition at 5 µM: read-out: % Inhib. of HSF-PLA2 at 5 μM
T1 construct: Synovial fluid was obtained from patients with rheumatoid arthritis; from tissue; host or cells: cell-depleted synovial fluid of patients with rheumatoid arthritis
T1 sequence (P14555 21-144): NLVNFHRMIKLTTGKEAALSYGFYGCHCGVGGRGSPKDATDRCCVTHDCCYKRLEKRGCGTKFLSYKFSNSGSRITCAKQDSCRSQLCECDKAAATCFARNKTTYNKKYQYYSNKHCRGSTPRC
From the text: 1, Phospholipase A2 (PLA2) enzymatic assay - % Inhibition of HSF-PLA2
PLA2 assay procedure described by Hope et al., Inflammation 14:543-559 (1.990) was utilized to measure the inhibitory activity of the invention (inhibitor) against PLA2 activity in human synovial fluid (HSF). Synovial fluid was obtained from patients with rheumatoid arthritis. The assay procedure measured the release of [1-^14 C]oleic acid from the sn-2 position of phospholipids in autoclaved Escherichia coli previously grown in media containing [1-^14 C]oleic acid. The standard assay reaction conditions included 1×10^9 Escherichia coil (10,000 dpm ^14 C), 0.15% (v/v) cell-depleted HSF, (which was equivalent to 66 μg protein/mL) 2 mM CaCl2, 150 mM NaCl, 50 mM sodium (N-[2-hydroxyethyl] piperazine-N'-[2-ethanesulfonate]) (HEPES) buffer (pH 7.3), 1% dimethyl sulfoxide (DMSO) and various concentrations of inhibitor in a total volume of 0.5 ml. Inhibitors were dissolved in DMSO and added. The reaction was initiated by addition of HSF, incubated for 30 min at 37° C. and then stopped by addition of 2.5 ml of chloroform/methanol (1:1.5, v/v). The total lipids were extracted by the method of Bligh, E. G., and Dyer, W. J, Can. J. Biochem. Physiol. 37:911-917 (1959) by the further addition of 0.5 mL of chloroform and 1 mL of water with mixing. The lipid extract was redissolved in chloroform/methanol (9:1, v/v) containing 10 ug of carrier oleic acid. The oleic acid was separated from phospholipids by thin layer chromatography using gel-impregnated glass fiber sheets (ITLC type SG sheets). The sheets were preactivated by heating at 110° C. for 30 min. The lipid extract was applied to the sheets and chromatographed for 6 minutes, using hexane/acetic acid (100:1, v/v). The positions on the sheet containing oleic acid and phospholipids were visualized by exposure to iodine vapor and located by comparison to standards. The oleic acid and phospholipid zones were cut from the sheets, shaken individually with 2 ml of ethanol/water (80:20, v/v) and 15 ml of Aquasol, then counted for [^14 C] radioactivity (dpm). PLA2 activity, expressed as percent hydrolysis, was calculated from the formula: [formula] and was corrected for nonenzymatic hydrolysis of the substrate. Percent inhibition due to the presence of drug was calculated from the formula: [formula]
When various concentrations of a Compound of Formula I were tested, the percent inhibition at each concentration was plotted as log concentration (abscissa) versus percent inhibition (ordinate) and the IC50 was determined from this plot.

cellular PLA2 = test: Inhibition of Cellular Phospholipase A2 (A23187-stimulated macrophages); type: cell-based; details: 5 μM; rat peritoneal macrophages, A-23187 stimulated
Experimental: II. Inhibition of Cellular Phospholipase A2. - % Inhibition of Cellular PLA2
Resident macrophages were obtained from rats by peritoneal lavage with phosphate buffered saline minus Ca2^++ and Mg2^++ (PBS). Cells were washed 3 times with PBS and resuspended in Dulbecco's Modified Eagle's Medium (GiBco) containing L-glutamine low D-glucose (1000 mg/L), and sodium pyruvate (110 mg/L), supplemented with 10% fetal calf serum. Cells were counted on a Coulter ZBI cell counter and then resuspended to a concentration of 6×10^6 cells/1.5 ml. The cell suspension (1.5 ml culture dishes (35 mm) and the cells were allowed to adhere to the dishes for 90 minutes at 37° C. Dishes were washed 3 times with PBS to remove non-adherent cells. [^14 C]arachidonic acid ([^14 C]-AA, approximately […], were added to the cells (1 uCi/dish) and allowed to incorporate for 120 minutes. Medium containing unincorporated [^14 C]-AA was removed and the cell layer was again washed 3 times with PBS. Inhibitors were dissolved in dimethylsulfoxide (DMSO) and added directly to the macrophages in Hank's Balanced Salt Solution (GiBco) phosphate-buffered, pH 7.4) to obtain the desired final concentration. Cells were incubated with drug or DMSO for 30 minutes at 37° C. and were then stimulated with calcium-ionophore A-23187 (0.75 uM) for 20 minutes. The extracellular medium was removed and the [^14 C] radioactivity released into this medium from AA metabolism was measured by liquid scintillation spectroscopy. The amounts of LTB4 and PGE2 were measured in the extracellular medium by radio immunoassay with specific antisera. The effects of inhibitor were measured as percent inhibition of A23187- stimulated AA metabolite release (^14 C release, PGE2 and LTB4 production) (control) which were calculated from the formula: [formula] IC50 's were calculated as described in the HSF-PLA2 assay.

[2] = tested on: carrageenan-induced paw edema in rats; test: Carrageenan-induced paw edema model of inflammation; type: in vivo; details: rat; for inhibition in vivo at 30 mg/kg / inhibition in vivo at 20 mg/kg / inhibition in vivo at 10 mg/kg / inhibition in vivo at 100 mg/kg: 2 hr, read-out: Carrageenan ind. paw edema % Inhib. 2 hr; for inhibition in vivo at 10 mg/kg: 10 mg/Kg ip; for inhibition in vivo at 100 mg/kg: 100 mg/Kg po
[3] = tested on: adjuvant-induced arthritis in male Lewis rats; test: Established adjuvant-induced arthritis test; type: in vivo, rat; details: 30 mg/Kg po daily seven days, day 28 minus day 21; vehicle value in parentheses
Experimental: IV. Adjuvant-induced Arthritis
Male Lewis rats (120-140 g) received 0.1 mg myeobacterium brityricum (0.5% ow/v) heavy mineral oil containing 0.2% digitonin administered in the base of the tail and the resulting arthritis was allowed to develop for 21 days (Coffey and Salvador, 1981). The combinded volumes of both hind paws were measured using a water plethysmograph by immersion of the paws to the level of the lateral malleolus. The animals were divided into drug-treatedand vehicle (control) groups (six rats per group) with approximately equal volumes of both hind paws. On day 21, body weights were recorded and the i.p. or p.o. vehicle and drug were then administered daily for seven days. On day 28, the final day of the experiment, heparinized (0.2 units/100 μl) blood was also collected for measurement of plasma fibrinogen concentrations (Goodwin, 1961). The changes in paw volume and body weight were calculated as paw volume or body weight at day 28 minus paw volume or body weight at day 21. Values are reported as means ± S.E. for n=6. Plasma fibrinogen concentration was quantitated according to Goodwin et al. (1961) and is expressed in mg/dl. Statistical differences between measurement parameters of the drug-treated and control groups were determined using Students's t-test.

| Compound | inhibition at 5 µM [1] [%] | % Inhib. of cellular PLA2 at 5 μM (cellular PLA2) [%] | inhibition in vivo at 30 mg/kg ([2]; 30 mg/Kg ip) [%] | inhibition in vivo at 100 mg/kg [2] [%] | further results |
| --- | --- | --- | --- | --- | --- |
| CCCCCCCCn1c2c(c3cc(/C=C(\C)c4ccc(C(=O)O)o4)ccc31)CCCC2 [Example 50, (E)-5-[1-methyl-2-(1,2,3,4-tetrahydro-9-octyl-9H-dibenzo[b,d]-pyrrol-6-yl)ethenyl]-2-furancarboxylic acid] | 47 | 79 |  |  | inhibition in vivo at 20 mg/kg ([2]; 20 mg/Kg ip): 56% |
| (E)-5-[2-(1,2,3,4-tetrahydro-3,3dimethyl-9-octyl-9 H-dibenzo[b,d]-pyrrol-6yl)ethenyl]-2-furancarboxylic acid [Example 45] |  | 53 |  |  | % Inhib. of HSF-PLA2 at 5 μM ([1]; 5 μM): 86%; Carrageenan ind. paw edema % Inhib. 2 hr ([2]; 20 mg/Kg ip): 46% |
| CCCCCCCCn1c2c(c3cc(C(=O)c4ccc(C(=O)O)o4)ccc31)CCCC2 [Example 157, 5-[(1,2,3,4-tetrahydro-9-octyl-9H-dibenzo[b,d]pyrrol-6-yl)carbonyl]-2-furancarboxylic acid] | 40 | 68 |  | 44 | inhibition in vivo at 20 mg/kg ([2]; 20 mg/Kg ip): 41% |
| CCCCCCCCn1c2c(c3ccc(Oc4ccc(C(=O)O)o4)cc31)CCCC2 [Example 133, 5-[(1,2,3,4-tetrahydro-9-octyl-9H-dibenzo[b,d]pyrrol-7-yl)oxy]-2-furancarboxylic acid] | 31 | 85 |  | 58 |  |
| COc1ccc(Cn2c3c(c4cc(Oc5ccc(C(=O)O)o5)ccc42)CCCC3)cc1 [Example 149, 5-[[1,2,3,4-tetrahydro-9-[(4-methoxyphenyl)methyl]-9H-dibenzo[b,d]pyrrol-6-yl]oxy]-2-furancarboxylic acid] | 62 | 99 | 48 |  |  |
| CCCCCCCCn1c2c(c3cc(CCc4ccc(C(=O)O)o4)ccc31)CCCC2 [Example 55, 5-[2-(1,2,3,4-tetrahydro-9-octyl-9H-dibenzo[b,d]pyrrol-6-yl)ethyl]-2-furancarboxylic acid] | 73 | 91 |  | 49 | inhibition in vivo at 10 mg/kg [2]: 59% |
| CC(C)CCCC(C)CCn1c2c(c3cc(Oc4ccc(C(=O)O)o4)ccc31)CCCC2 (racemic) [Example 144, rac-5-[[1,2,3,4-tetrahydro-9-(3,7-dimethyloctyl)-9H-dibenzo[b,d]pyrrol-6-yl]oxy]-2-furancarboxylic acid] | 78 | 87 | 80 |  |  |
| COc1ccc(Cn2c3c(c4cc(Oc5ccc(C(=O)O)o5)ccc42)CCCC3)cc1OC [Example 150, 5-[[1,2,3,4-tetrahydro-9-[(3,4-dimethoxyphenyl)methyl]-9H-dibenzo[b,d]pyrrol-6-yl]oxy]-2-furancarboxylic acid] | 42 | 96 | 45 |  |  |

More lines, main results first:

| inhibition at 5 µM [1] [%] | Compound | % Inhib. of cellular PLA2 at 5 μM (cellular PLA2) [%] | inhibition in vivo at 30 mg/kg ([2]; 30 mg/Kg ip) [%] | inhibition in vivo at 100 mg/kg [2] [%] | further results |
| --- | --- | --- | --- | --- | --- |
| 47 | O=C(O)c1ccc(Oc2ccc3c(c2)c2c(n3CCCCc3ccccc3)CCCC2)o1 [Example 145, 5-[[1,2,3,4-tetrahydro-9-(4-phenylbutyl)-9H-dibenzo[b,d]pyrrol-6-yl]oxy]-2-furancarboxylic acid] | 99 | 43 |  | IC50 ([1]; human synovial fluid PLA2, 30 min at 37° C., pH 7.3): 4.8 µM |
| 83 | CCCCCCCCCn1c2c(c3cc(Oc4ccc(C(=O)O)o4)ccc31)CCCC2 [Example 142, 5-[(1,2,3,4-tetrahydro-9-nonyl-9H-dibenzo[b,d]pyrrol-6-yl)oxy]-2-furancarboxylic acid] | 90 |  |  | inhibition in vivo at 30 mg/kg ([2]; 30 mg/Kg po): 48% |
| 73 | CCCCCCCCn1c2c(c3cc(/C=C(\C)c4ccc(C(=O)O)o4)ccc31)CCCC2(C)C [Example 53, (E)-5-[1-methyl-2-(1,2,3,4-tetrahydro-1,1-dimethyl-9-octyl-9H-dibenzo[b,d]pyrrol-6-yl)ethenyl]-2-furancarboxylic acid] | 63 |  | 55 | inhibition in vivo at 10 mg/kg [2]: 68% |
| 73 | CCCCCCCCn1c2c(c3cc(/C=C\c4ccc(C(=O)O)o4)ccc31)CCCC2(C)C [Example 52, (Z)-5-[2-(1,2,3,4-tetrahydro-1,1-dimethyl-9-octyl-9H-dibenzo[b,d]-pyrrol-6-yl)ethenyl]-2-furancarboxylic acid] | 66 |  |  | Change of body wt. (vehicle) [3]: 13 g; Change of paw volume (vehicle) [3]: 0.66 mL; inhibition in vivo at 10 mg/kg [2]: 50% |
| 81 | CCCCCCCCC1CCCc2c1n(CCCCCCCC)c1ccc(Oc3ccc(C(=O)O)o3)cc21 (racemic) [Example 154, rac-5-[(1,2,3,4-tetrahydro-1,9-dioctyl-9H-dibenzo[b,d]pyrrol-6-yl)oxy]-2-furancarboxylic acid] | 78 | 45 | 49 | Change of body wt. (vehicle) [3]: 10 g |
| 37 | O=C(O)c1ccc(Oc2ccc3c(c2)c2c(n3Cc3cccc(F)c3)CCCC2)o1 [Example 147, 5-[[9-[(3-fluorophenyl)methyl]-1,2,3,4-tetrahydro-9H-dibenzo[b,d]pyrrol-6-yl]oxy]-2-furancarboxylic acid] | 94 | 49 |  |  |
